Measurements from patent publication US20260055141A1, “COMPOSITIONS AND METHODS FOR CONTROLLING FOOD INTAKE, ENERGY EXPENDITURE, AND BODY WEIGHT FOR THE TREATMENT OF OBESITY AND METABOLIC DISEASES” (The Trustees of the University of Pennsylvania, priority 2022, published 2026).
Non-standard residues stand in square brackets, D forms with d. No end group written: not given here.

Key:
[1] = 4th ventricle intracerebroventricular injection, food intake and body weight in DIO rats; type: in vivo, rat; conditions: for food intake compared to control: SU75-36 20, 100 or 200 μg, SU75-37 20 μg, 60% HFD, 1, 3, 6, 24 h
Procedure: Adult male Sprague-Dawley rats (Charles River) were individually housed under a 12 h-light: 12 h-dark cycle in a temperature and humidity-controlled satellite vivarium and had ad libitum access to water and chow (5001, LabDiet) or a 60% high fat diet (HFD): D12492, Research Diets) and when applicable had ad libitum access to kaolin pellets (K50001, Research Diets). Rats were exposed to kaolin for at least 5 days prior to measuring kaolin consumption in pica testing. Except for studies conducted in the bioDAQ, for all feeding studies rats were housed in hanging wire cages to allow for accurate measurement of food spillage. Experiments were conducted under the National Institutes for Health Guide for the Care and Use of Laboratory Animals and all procedures were approved by the Institutional Animal Care and Use Committee at the University of Pennsylvania.
For cannula implantation, rats were anesthetized by intraperitoneal injection of a mixture containing ketamine (90 mg/kg, Butler Animal Health Supply), xylazine (2.7 mg/kg, Anased), and acepromazine (0.64 mg/kg, Butler Animal Health Supply) (KAX) and then placed into a stereotaxic apparatus. Each rat was stereotaxically implanted with a guide cannula (26-ga, Plastics One) aimed at the fourth ventricle (guide cannula coordinates: on midline. 2.5 mm anterior to occipital suture, 5.2 mm ventral to skull; internal cannula aimed 7.2 mm ventral to skull) or the lateral ventricle (guide cannula coordinates: 1.5 mm lateral to midline, 0.9 mm posterior to bregma. 1.8 mm ventral to skull; internal cannula aimed 3.8 mm ventral to skull). For all cannulas, dummies (no projection beyond guide) were inserted in the guide cannula and left until infusions were performed. For all surgeries, rats received post-operative temperature support and analgesia was provided immediately following surgery and for two post-operative days (2 mg/kg meloxicam).
For all studies measuring food intake following drug treatment, central injections were given at a volume of 2 μL using a Hamilton syringe terminating in an injector tip extending 2.0 mm beyond the guide cannula. For acute treatment days, rats were food deprived for 2 hours before the dark cycle and injections were done immediately prior to the dark cycle onset. Food and kaolin intake was measured 1, 3, 6, and 24 hours after injections were completed and food crumbs were weighed and accounted for between each timepoint. Body weight was measured during injections and 24 hours after. Injection treatments were organized in a counterbalanced, within-subjects design and separated by ≥72 h. […]
Rats were weighed at the beginning of the experiment and 24 hours after administration of the GPR75 inhibitor. The weight change of each rat after 24 hours was then calculated. […]

[2] = Lateral intraventricular injection in HEPES buffer, food intake and body weight in DIO rats; type: in vivo, rat; conditions: lateral ventricle; for food intake compared to control: 60% HFD, 1, 3, 6, 24 h
Procedure: Diet induced obese (DIO) rats (n=4) were administered 150 μg/3 μL SU75-36 in a vehicle or in a HEPES buffer by lateral intraventricular injection and observed over 24 hours. One group of rats was administered a Vehicle of 50% DMSO in HEPES as a negative control. All rats were given ad libitum access to water and 60% HFD. […] (FIG. 10A). […] Rats were weighed at the beginning of the experiment and 24 hours after administration. The weight change of each rat after 24 hours was then calculated. […] (FIG. 10B). In a separate experiment, diet induced obese (DIO) rats (n=4) were administered 133 μg/2 μL SU75-37 in a HEPES buffer by lateral intraventricular injection and observed over 24 hours. One group of rats was administered a vehicle without a GPR75 inhibitor as a negative control. All rats were given ad libitum access to water and a 60% high fat diet (HFD). SU75-37 was optimized using an acetate salt precipitation rather than a TFA salt precipitation to maintain a neutral >4.5 pH in HEPES buffer solution. The food intake of each rat was observed 1, 3, 6, and 24 hours after administration. […] Rats were weighed at the beginning of the experiment and 24 hours after administration. The weight change of each rat after 24 hours was then calculated. […] (FIG. 11B).

Row | Substance | food intake compared to any of the other groups ([1]; 200 μg, 60% HFD) | food intake compared to control [1] | body weight change after 24 hours ([1]; any amount (20, 100, 200 μg), 60% HFD) | food intake compared to any of the other groups ([2]; 150 μg/3 μL in HEPES buffer, DIO rats) | food intake compared to control ([2]; 150 μg/3 μL in vehicle (50% DMSO in HEPES) or HEPES buffer, DIO rats) | food intake compared to control ([2]; 150 μg/3 μL in vehicle (50% DMSO in HEPES) or HEPES buffer, DIO rats, listed as 36) | body weight change after 24 hours compared to any other of the groups ([2]; 150 μg/3 μL with HEPES buffer, DIO rats) | body weight change after 24 hours ([2]; 150 μg/3 μL, DIO rats) | food intake compared to control ([2]; 133 μg/2 μL in HEPES buffer, acetate salt precipitation, DIO rats) | body weight change after 24 hours ([2]; 133 μg/2 μL in HEPES buffer, DIO rats) | 24 h food intake ([2]; 150 μg/3 μL in HEPES buffer, male HFD fed rats (FIG. 11 legend))
1 | H[dS]QGTFTSDLSKYLEEEVREFIWLKNGGPSDVNTDRPGLLDLK-NH2 [SU75-36] | further decrease | significant decrease in food intake | significant decrease in weight | further decrease | significant decrease in food intake | suppresses | further decrease | significant decrease in weight |  |  | 
2 | TFTSDLSKYLEEEVREFIWLKNGGPSDVNTDRPGLLDLK-NH2 [SU75-37] |  | significant decrease in food intake |  |  |  |  |  |  | significant decrease in food intake | significant decrease in weight | suppresses
